Assay results from PMC6931124, “NPY1R-targeted peptide-mediated delivery of a dual PPARα/γ agonist to adipocytes enhances adipogenesis and prevents diabetes progression” (Molecular Metabolism, 2019).
Entries after “also recorded” stand apart in the source; their conditions may differ.

Key:
3T3-L1 cells = test: qRT-PCR of adipocyte-marker genes, 3T3-L1; type: cell-based, murine; conditions: qPCR, vs DMSO; n ≥ 3
Protocol: (§1) The 3T3-L1 or SGBS cells were seeded into 6-well plates and differentiated as previously described. Tesa or peptides were added to the differentiation medium at a concentration of 100 μM on day 2, followed by 12 h or 24 h incubation. On day 4, the cells were washed two times with PBS, harvested by trypsinization, and stored at −70 °C until RNA isolation was performed. […] N ≥ 3 independent experiments with two replicates were performed. For the cell culture experiments, the data were analyzed according to the 2^−ΔΔCt method using 36B4 or GAPDH as housekeeping genes and DMSO treatment as a control. Liver mRNA expression was calculated relative to 18sRNA, which was used as an internal control due to its resistance to glucose-dependent regulation. The mRNA levels were quantified using the standard curve method of QuantStudio 6 Flex software (Applied Biosystems, Foster City, CA, USA), determining the crossing points of the individual samples using an algorithm that identifies the first turning point of the fluorescence curve. Amplification of the specific transcripts was confirmed by the melting curve profiles (cooling the sample to 68 °C and heating slowly to 95 °C while measuring the fluorescence) at the end of each PCR [53].
(§2) (A, B) Cells were differentiated and stimulated according to the protocol depicted for 3T3-L1 (A) and for SGBS (B). […] Bars represent mean ± SEM from n = 3 independent experiments performed in quadruplicates. Measurements were normalized using DMSO (vehicle)-treated cells (set to 100%). Statistical significances refer to vehicle-treated cells. (E,F) Expression of adipocyte-enriched genes in 3T3-L1 (E) or SGBS (F) adipocytes analyzed by qPCR. Values represent mean ± SEM from n ≥ 3 independent experiments performed in duplicates. […] Statistical significances refer to DMSO-treated cells and were determined by one-way analysis of variance (ANOVA) followed by Dunnett's multiple comparison test, *≤0.05, **p ≤ 0.01, ***p ≤ 0.001.

SGBS cells = test: qRT-PCR of adipocyte-marker genes, SGBS; type: cell-based, human; conditions: qPCR, vs DMSO; n ≥ 3
Protocol: as §1, §2

[1] = Body weight change in db/db mice; type: in vivo; conditions: 2.5 μM/kg/day, 8 days, tesa oral, peptides i.p., n = 5
Protocol: (§3) All of the experiments were performed according to the animal ethical laws of the state Saxony, Germany, and were approved by the local animal ethics review board (Landesdirektion Sachsen, Leipzig, Germany). Female db/db mice 12–15 weeks of age were purchased from Taconic (Denmark) and housed in groups of 5 in temperature- and humidity-controlled facilities in a 12 h:12 h light–dark cycle and had free access to tap water and food (regular chow, Sniff, Soest, Germany). Three out of seven groups served as controls (N = 15, see Table 1). The 5 db/db mice were untreated and 10 db/db mice were vehicle treated either orally or intraperitoneally (i.p.). […]
(§4) All of the mice were monitored for 9 days during the treatment period. Body weight, food intake, and water uptake were recorded daily and body composition (lean body mass and whole body fat mass) was recorded at the beginning, middle, and end of the study in the conscious mice using an EchoMRI system (Echo Medical Systems, Houston, TX, USA). At the beginning and end of the treatment period, the HbA1c levels were determined from 5 μl of whole venous blood samples using an automated chemical analyzer at the Institute of Laboratory Medicine and Clinical Chemistry and beta-ketone using an automated glucose monitor (FreeStyle Precision H, Abbott GmbH, Ludwigshafen, Germany). […]

[2] = system: subcutaneous and epigonadal adipose tissue; test: Adipose tissue histology and adipocyte size; type: in vivo; conditions: db/db mice, 2.5 μmol/kg/day, 8 days; H&E, epigonadal and subcutaneous AT
Protocol: All of the experiments were performed according to the animal ethical laws of the state Saxony, Germany, and were approved by the local animal ethics review board (Landesdirektion Sachsen, Leipzig, Germany). Female db/db mice 12–15 weeks of age were purchased from Taconic (Denmark) and housed in groups of 5 in temperature- and humidity-controlled facilities in a 12 h:12 h light–dark cycle and had free access to tap water and food (regular chow, Sniff, Soest, Germany). Three out of seven groups served as controls (N = 15, see Table 1). The 5 db/db mice were untreated and 10 db/db mice were vehicle treated either orally or intraperitoneally (i.p.). One additional group (n = 5) of lean C57BL/6NTac mice was used as a metabolically healthy control group. Groups 1 to 5 were treated daily with 2.5 μmol/kg body weight tesa, peptides or vehicle (1% (v/v) DMSO in PBS) either by gavage or intraperitoneal injection for 8 days according to Table 1. The control mice were gavaged with an equal volume of vehicle.

Rectal body temperature = type: in vivo; conditions: db/db mice, 2.5 μM/kg/day, 8 days
Protocol: as §3, §4

Ketone bodies = type: in vivo; conditions: db/db mice, 2.5 μM/kg/day, 8 days; n = 5
Protocol: as §3, §4

Serum Mcp-1 = type: in vivo; conditions: db/db mice, 2.5 μmol/kg/day, 8 days; ELISA; n = 5
Protocol: as §3, with “(i.p.). One additional group (n = 5) of lean C57BL/6NTac mice was used as a metabolically healthy control group.” for “(i.p.).”
(§5) Serum insulin (mouse insulin ELISA, Mercodia, Uppsala, Sweden), adiponectin (mouse adiponectin ELISA, AdipoGen, San Diego, CA, USA), leptin (mouse leptin ELISA, Crystal Chem, Downers Grove, IL, USA), and Mcp-1 (mouse/rat CCL2/JE/Mcp-1 Quantikine ELISA, R&D Systems, Minneapolis, MN, USA) levels were analyzed via ELISA according to the manufacturer's instructions. Serum concentrations of TG, FFA, and cholesterol were measured by an automatic chemical analyzer at the Institute of Laboratory Medicine and Clinical Chemistry.

Plasma free fatty acids = type: in vivo; conditions: db/db mice, 2.5 μM/kg/day, 8 days; n = 5
Protocol: as §3, with “(i.p.). One additional group (n = 5) of lean C57BL/6NTac mice was used as a metabolically healthy control group.” for “(i.p.).”
as §5

obese Zucker rats = conditions: free systemically administered tesa; ref [43]; cited from earlier work
[3] = system: LDL receptor-deficient mice; conditions: ref [94]; cited from earlier work
db/db mice = conditions: ref Cha et al. [93]; cited from earlier work
Text: To strengthen this finding, we examined the expression of the PPARγ-responsive genes adiponectin, Fabp4, and Cidec [[71], [72], [73], [74],[88], [89], [90], [91]]. Adiponectin may mediate the beneficial effects of PPARγ agonists for the treatment of diabetes, as it is an insulin-sensitizing adipokine that affects hepatic glucose output and decre ...

[4] = cited from earlier work
Text: The dual PPARα/γ agonist tesaglitazar (tesa), in contrast, contains a carboxyl function suitable for synthesis. […] The clinical investigation of tesa was discontinued in phase III because of safety concerns regarding ...

CCO[C@@H](Cc1ccc(OCCc2ccc(OS(C)(=O)=O)cc2)cc1)C(=O)O [tesa, tesaglitazar]
Cidec expression, 3T3-L1 (3T3-L1 cells): enhanced
Fabp4 expression, 3T3-L1 (3T3-L1 cells): enhanced
adiponectin expression, 3T3-L1 (3T3-L1 cells): upregulated
Cidec expression, SGBS (SGBS cells): enhanced the expression of adiponectin, Fabp4, and Cidec
Fabp4 expression, SGBS (SGBS cells): only Fabp4 induction by tesa reached significant differences
adiponectin expression, SGBS (SGBS cells): enhanced the expression of adiponectin, Fabp4, and Cidec
body weight change, in words [1]: did not change significantly; also recorded: can prevent this weight loss
adipocyte size [2]: trend toward smaller adipocyte size
body temperature, in words (Rectal body temperature): normalized
ketone bodies (Ketone bodies): normalization of the plasma concentration
Mcp-1 levels (Serum Mcp-1): no significant effect
free fatty acids (FFA) (Plasma free fatty acids): normalization
insulin sensitivity in obese Zucker rats (obese Zucker rats): restore insulin sensitivity in obese Zucker rats
atherosclerosis in LDL receptor-deficient mice [3]: reduces atherosclerosis in LDL receptor-deficient mice
adiponectin mRNA expression and plasma levels (db/db mice): induces increased adiponectin mRNA expression and plasma levels in db/db mice
insulin resistance ([4]; mice and humans, ref [41, 42, 43]): reduce insulin resistance in mice and humans
clinical safety ([4]; phase III, ref [16, 44]): discontinued in phase III because of safety concerns regarding renal dysfunction
